According to patent publication US7632816B2, “Treatment of Alzheimer amyloid deposition” (New York University, priority 2003, dated 2009):
Entries after “also recorded” stand apart in the source; their conditions may differ. Read-outs that look alike come from different tables or passages of the source. Square brackets hold non-standard residues; d marks the D form. Peptide text beside a SMILES is read from it.

Key:
apoE4 [1] = target: T1, apoE4 (Homo sapiens, UniProt P02649, C130R); experiment: Thioflavin-T aggregation inhibition: apoE4-promoted Aβ1-42 fibril formation; format: biochemical
T1 construct: made in house; host or cells: primary forebrain astrocytes of GFAP-human apoE4 transgenic mice
Method: Recombinant apoE3 and apoE4 were purchased from Calbiochem Corp. (San Diego, Calif.). Lipidated apoE3 and apoE4 complexes were prepared from primary cultures of astrocytes derived from Tg mice in which human apoE3 or apoE4 were expressed under the control of the astrocyte-specific glial fibrillary acidic protein (GFAP) promoter as described previously (Fagan et al., “Unique Lipoproteins Secreted by Primary Astrocytes from Wild Type, ApoE (−/−), and Human ApoE Transgenic Mice,” J. Biol. Chem. 274:30001-30007 (1999); DeMattos et al., “Purification and Characterization of Astrocyte-secreted Apolipoprotein E and J-Containing Lipoproteins from Wild-type and Human ApoE Transgenic Mice,” Neurochemistry International 39:415-425 (2001); Sun et al., “Glial Fibrillary Acidic Protein-apolipoprotein E (apoE) Transgenic Mice: Astrocyte-specific Expression and Differing Biological Effects of Astrocyte-secreted ApoE3 and ApoE4 Lipoproteins,” J. Neurosci. 18:3261-3272 (1998); which are hereby incorporated by reference in their entirety). […] The purity of the apoE preparation was assessed by SDS-PAGE.
Aβ1-40 and Aβ1-42 were studied for comparison. […] Samples containing 15 μg of incubated peptides were taken at indicated intervals and fluorescence was measured as previously described in a Perkin-Elmer LS-50B fluorescence spectrophotometer (Perkin Elmer Instruments, Shelton, Conn.) (Wisniewski et al., “Acceleration of Alzheimer's Fibril Formation by Apolipoprotein E in vitro,” Am. J. Pathol. 145:1030-1035 (1994); Golabek et al., “The Interaction Between Apolipoprotein E and Alzheimer's Amyloid β-peptide is Dependent on β-peptide Conformation,” J. Biol. Chem. 271:10602-10606 (1996); which are hereby incorporated by reference in their entirety). […] Differences in amount of fibrils formed by the different peptides were evaluated by means of a repeated measures ANOVA, followed by a Tukey HSD post-hoc test using Statistica (version 6.1) (StatSoft Inc., Tulsa, Okla.). […]

[2] = format: physicochemical
From the text: Circular dichroism (“CD”) was used to study the secondary structure of peptides in solution as described previously (Golabek et al., “The Interaction Between Apolipoprotein E and Alzheimer's Amyloid β-peptide is Dependent on β-peptide Conformation,” J. Biol. Chem. 271:10602-10606 (1996); Soto et al., “Alzheimer's Soluble β-amyloid is Conformationally Modified by Apolipoproteins in vitro,” Neuroreport 7:721-725 (1996); which are hereby incorporated by reference in their entirety). Aliquots of HFIP treated peptides were diluted in 5 mmol/L Tris buffer (pH 7.0) to obtain a peptide concentration of 100 μmol/L, and were incubated at 37° C. CD was measured at indicated intervals with t=0 being immediately after the peptide was reconstituted. Measurements were on a Jasco J-720 spectropolarimeter (Easton, Md.), equipped with a model CTC-344 circular temperature control system (Neslab Inc., Newington, N.H.), at final protein concentration of 0.15 mg/ml in a cell with 0.1 cm path length. The spectra were recorded at 1 nm intervals over the wavelength range of 190-260 nm at 15° C. Results were expressed as molar ellipticity in units of deg-cm^2-dmol^−1, and the data were analyzed by the Lincomb, convex constraints and neural network algorithms to obtain percentages of different types of secondary structures using Softsec software (Softwood Inc., PA.) (Perczel et al., “Analysis of Circular Dichroism Spectrum of Proteins Using the Convex Constraint Algorithm,” Anal. Biochem. 203:83-93 (1992); Manavalan et al., “Variable Selection Method Improves the Prediction of Protein Secondary Structure from Circular Dichroism,” Anal. Biochem. 167:76-85 (1987); Toumadje et al., “Extending CD Spectra of Proteins to 168nm Improves the Analysis for Secondary Structures,” Anal. Biochem. 200:321-331 (1992); Sreerma et al., “A Self-consistent Method for the Analysis of Protein Secondary Structure from Circular Dichroism,” Anal. Biochem. 209:32-44 (1993); which are hereby incorporated by reference in their entirety). […]

Aβ1-42 = Aβ1-42 toxicity in SK-N-SH cells with peptide added without apoE, MTT assay; format: cell-based, human
Method: (§1) All experiments were run in triplicate. The results from cell culture neurotoxicity studies were evaluated by one-way analysis of variance, followed by a Dunnett's test as a post hoc analysis.

apoE4 [3] = target: T1, apoE4; experiment: Toxicity rescue: neutralizing apoE4's effect on Aβ1-42 neurotoxicity, MTT assay in SK-N-SH cells; format: cell-based; details: Aβ1-42 100 μmol/L, apoE4 0.5 μmol/L preincubated with 0.5 μmol/L peptide; two day p<0.05, 6 day p<0.01
Method: as §1

[4] = CD immediately after reconstitution, 5 mmol/L Tris pH 7.0

T1 sequence (P02649 19-317 C130R): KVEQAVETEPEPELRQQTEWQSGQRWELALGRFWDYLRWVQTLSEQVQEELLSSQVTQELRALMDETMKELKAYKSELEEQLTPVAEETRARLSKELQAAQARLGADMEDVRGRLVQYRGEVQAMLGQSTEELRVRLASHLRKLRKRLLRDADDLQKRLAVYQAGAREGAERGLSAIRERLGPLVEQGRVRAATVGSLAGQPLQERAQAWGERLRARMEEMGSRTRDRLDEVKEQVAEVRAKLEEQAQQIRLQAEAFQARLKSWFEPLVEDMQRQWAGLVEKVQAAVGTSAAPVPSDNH

CC(=O)N[C@@H](C(=O)N[C@H](Cc1c[nH]cn1)C(=O)N[C@H](Cc1c[nH]cn1)C(=O)N[C@H](CCC(N)=O)C(=O)N[C@H](CCCCN)C(=O)N[C@H](CC(C)C)C(=O)N1CCC[C@@H]1C(=O)N[C@H](Cc1ccccc1)C(=O)N[C@H](Cc1ccccc1)C(=O)N[C@H](C)C(=O)N[C@H](CCC(=O)O)C(=O)N[C@H](CC(=O)O)C(=O)N[C@@H](C(=O)NCC(=O)N[C@H](CO)C(=O)N[C@H](CC(N)=O)C(=O)N[C@H](CCCCN)C(N)=O)C(C)C)C(C)C [Aβ12-28P] (Ac-[dV][dH][dH][dQ][dK][dL][dP][dF][dF][dA][dE][dD][dV]G[dS][dN][dK]-NH2)
relative reduction in fluorescence (apoE4 [1]): 25.3% | relative reduction in fluorescence (apoE4 [1]; apoE4 preincubated with Aβ12-28P, then added to Aβ1-42, day six): 52.3% | chaperoning effect of apoE4 on Aβ1-42 fibril formation (apoE4 [1]; apoE4 preincubated with equimolar Aβ12-28P, p<0.01): significantly reduced | β-sheet content ([2]; CD at time=0): 2% | random coil, share of the total protein structure [2, 4]: 59% | ∝-helix, share of the total protein structure [2, 4]: 39% | cell viability, Aβ1-42 incubated with peptide (Aβ1-42; 10 μmol/L Aβ1-42 with 10 μmol/L peptide): Much more striking improvement in cell viability | cell viability, Aβ1-42 incubated with peptide without apoE (Aβ1-42; Aβ1-42 100 μmol/L, peptide 0.5 μmol/L, six days): slightly increased cell viability | rescue of cell viability from apoE4-enhanced Aβ1-42 toxicity (apoE4 [3]): significant rescue of the cell viability; also recorded: could be neutralized
